Earlier results in article PMC7238799 (Pulmonary Circulation, 2020).
Read-outs that look alike come from different tables or passages of the source.

Assays:
[1] = cited from earlier work; for Half-life / Steady-state PTR: oral
healthy male subjects = conditions: from 400 µg BID up to 1600–1800 µg BID; cited from earlier work
[2] = test system: prostacyclin (IP) receptor; conditions: cited from earlier work
[3] = BID oral administration of selexipag

Question: With `CC#CCC(C)[C@H](O)/C=C/[C@@H]1[C@H]2c3cccc(CCCC(=O)O)c3O[C@H]2C[C@H]1O` (mixture of isomers) [beraprost] as the compound, how does the Half-life ([1]; administered four times daily) read?
Answer: The Half-life was 0.75 h.

Question: For `CCCCC[C@H](O)CC[C@@H]1[C@H]2Cc3cccc(OCC(=O)O)c3C[C@H]2C[C@H]1O` [treprostinil], which “Steady-state PTR” value ([1]; BID dosing) is on record?
Answer: The value was 7.0.

Question: And the “Steady-state PTR” value ([1]; TID dosing)?
Answer: The value was 2.5.

Question: What about the Half-life ([1]; administered two or three times daily) of the same compound?
Answer: The Half-life was 3 to 4 h.

Question: For `CC(C)N(CCCCOCC(=O)NS(C)(=O)=O)c1cnc(-c2ccccc2)c(-c2ccccc2)n1` [selexipag], which “Treated subjects achieving full dose escalation” value (healthy male subjects) is on record?
Answer: The value was 67–81%.

Question: For `CC(C)N(CCCCOCC(=O)O)c1cnc(-c2ccccc2)c(-c2ccccc2)n1` [ACT-333679], which Accumulation at steady-state [1, 3] is on record?
Answer: Its Accumulation at steady-state is 1.02–1.27 fold.

Question: And the “Mean steady-state PTR” value [1, 3]?
Answer: The value was 5.6–6.5.

Question: What about the “Effective half-life (EHL)” value ([1]; active metabolite of selexipag) of the same compound?
Answer: Its value is 3 to 4 h.

Question: And the Terminal elimination half-life ([1]; active metabolite of selexipag)?
Answer: The Terminal elimination half-life was 6.2 to 13.5 h.

Question: What about the “Maximal cAMP stimulation (efficacy percentage relative to iloprost)” value [2] of the same compound?
Answer: Its value is 48%.

Question: And the “Type of IP receptor agonism” value [2]?
Answer: The value was “weak partial agonist”.

Question: Which “Maximal cAMP stimulation (efficacy percentage relative to iloprost)” value [2] does the source give for `CC#CCC(C)[C@H](O)/C=C/[C@@H]1[C@H]2C/C(=C/CCCC(=O)O)C[C@H]2C[C@H]1O` (stereo partly shown) [iloprost] here?
Answer: The value was 100%.

Question: And the “Type of IP receptor agonism” value [2]?
Answer: Its value is “full agonist”.
